From patent US8772293B2, “Chemical compounds” (Pfizer Limited, priority 2010, dated 2014)
Counter-ions that a name gives are not always drawn.

These molecules were tested against T1, Nav1.7 (or SCN9A) channel (Homo sapiens, UniProt Q15858) (assay: Nav1.7 (hSCN9A) PatchXpress electrophysiology in HEK cells). Conditions: PatchXpress platform; HEK cells stably expressing hSCN9A; held at V1/2 of inactivation; calculated from single point % inhibition; read-out: Nav1.7 EIC50 (estimated IC-50).
T1 construct: expressed in transfected cells
T1 sequence (Q15858 whole entry): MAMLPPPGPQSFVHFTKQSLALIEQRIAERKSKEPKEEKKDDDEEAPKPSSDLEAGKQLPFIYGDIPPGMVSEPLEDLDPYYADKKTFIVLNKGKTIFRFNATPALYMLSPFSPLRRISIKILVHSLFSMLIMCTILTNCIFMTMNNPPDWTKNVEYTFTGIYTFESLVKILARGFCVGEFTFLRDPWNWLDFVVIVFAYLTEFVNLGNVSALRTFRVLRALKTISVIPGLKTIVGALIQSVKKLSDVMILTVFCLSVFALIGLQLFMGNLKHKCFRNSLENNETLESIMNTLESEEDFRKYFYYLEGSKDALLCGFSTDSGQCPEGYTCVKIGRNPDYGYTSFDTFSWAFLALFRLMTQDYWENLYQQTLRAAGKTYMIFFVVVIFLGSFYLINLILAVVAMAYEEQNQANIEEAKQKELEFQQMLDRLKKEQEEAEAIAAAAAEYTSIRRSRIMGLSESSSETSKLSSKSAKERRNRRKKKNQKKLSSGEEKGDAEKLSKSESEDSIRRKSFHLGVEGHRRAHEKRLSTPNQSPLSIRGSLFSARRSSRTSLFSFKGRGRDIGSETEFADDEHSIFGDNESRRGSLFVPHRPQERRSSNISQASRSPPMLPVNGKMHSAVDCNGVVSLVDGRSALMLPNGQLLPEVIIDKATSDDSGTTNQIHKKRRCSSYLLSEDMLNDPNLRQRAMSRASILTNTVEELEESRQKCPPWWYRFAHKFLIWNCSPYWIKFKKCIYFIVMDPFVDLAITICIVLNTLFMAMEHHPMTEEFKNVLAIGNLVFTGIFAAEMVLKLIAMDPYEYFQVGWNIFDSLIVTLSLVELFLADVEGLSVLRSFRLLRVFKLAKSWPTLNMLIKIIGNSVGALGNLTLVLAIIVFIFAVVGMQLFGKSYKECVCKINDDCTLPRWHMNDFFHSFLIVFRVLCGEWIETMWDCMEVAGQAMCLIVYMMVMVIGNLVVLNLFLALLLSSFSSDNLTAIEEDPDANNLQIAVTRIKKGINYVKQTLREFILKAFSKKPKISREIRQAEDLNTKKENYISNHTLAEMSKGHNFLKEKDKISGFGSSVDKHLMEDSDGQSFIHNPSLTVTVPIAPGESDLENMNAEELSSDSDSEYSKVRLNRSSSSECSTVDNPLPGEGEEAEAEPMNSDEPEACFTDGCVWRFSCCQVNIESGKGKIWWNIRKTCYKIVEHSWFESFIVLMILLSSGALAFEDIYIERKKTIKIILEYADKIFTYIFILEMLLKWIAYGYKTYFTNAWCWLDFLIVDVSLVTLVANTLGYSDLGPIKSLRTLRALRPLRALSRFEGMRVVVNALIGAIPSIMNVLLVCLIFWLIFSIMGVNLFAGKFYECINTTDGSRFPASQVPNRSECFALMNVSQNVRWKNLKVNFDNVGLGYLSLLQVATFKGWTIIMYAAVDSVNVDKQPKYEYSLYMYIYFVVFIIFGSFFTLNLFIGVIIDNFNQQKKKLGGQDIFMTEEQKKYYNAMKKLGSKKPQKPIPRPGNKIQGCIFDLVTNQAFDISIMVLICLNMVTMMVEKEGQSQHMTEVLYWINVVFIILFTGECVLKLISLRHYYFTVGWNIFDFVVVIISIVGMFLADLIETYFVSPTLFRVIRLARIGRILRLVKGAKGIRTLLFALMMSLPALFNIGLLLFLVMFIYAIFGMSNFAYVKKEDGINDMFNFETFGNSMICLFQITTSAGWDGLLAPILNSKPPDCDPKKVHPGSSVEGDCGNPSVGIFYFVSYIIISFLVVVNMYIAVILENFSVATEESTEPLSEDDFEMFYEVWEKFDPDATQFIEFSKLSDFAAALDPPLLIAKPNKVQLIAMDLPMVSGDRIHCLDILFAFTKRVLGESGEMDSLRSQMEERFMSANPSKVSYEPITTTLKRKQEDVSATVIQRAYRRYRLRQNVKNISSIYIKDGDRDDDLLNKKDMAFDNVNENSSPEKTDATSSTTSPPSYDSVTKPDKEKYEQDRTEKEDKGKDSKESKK
Type: cell-based
Protocol: The ability of the compounds of formula (I) to block the Nav1.7 (or SCN9A) channel were measured using the assay described below.
Human Embryonic Kidney (HEK) cells were transfected with an hSCN9A construct using lipofectamine reagent (Invitrogen), using standard techniques. Cells stably expressing the hSCN9A constructs were identified by their resistance to G-418 (400 μg/ml). Clones were screened for expression using the whole-cell voltage-clamp technique.
HEK cells stably transfected with hSCN9A were maintained in DMEM medium supplemented with 10% heat-inactivated fetal bovine serum and 400 µg/ml G-418 in an incubator at 37° C. with a humidified atmosphere of 10% CO2. For HTS, cells were harvested from flasks by trypsinization and replated in an appropriate multi-well plate (typically 96 or 384 wells/plate) such that confluence would be achieved within 24 hours of plating. For electrophysiological studies, cells were removed from the culture flask by brief trypsinization and re-plated at low density onto glass cover slips. Cells were typically used for electrophysiological experiments within 24 to 72 hours after plating.
Cover slips containing HEK cells expressing hSCN9A were placed in a bath on the stage of an inverted microscope and perfused (approximately 1 ml/minutes) with extracellular solution of the following composition: 138 mM NaCl, 2 mM CaCl2, 5.4 mM KCl, 1 mM MgCl2, 10 mM glucose, and 10 mM HEPES, pH 7.4, with NaOH. […] The osmolarity of the extracellular and intracellular solutions was 300 mOsm/kg and 295 mOsm/kg, respectively. All recordings were made at room temperature (22-24° C.) using AXOPATCH 200B amplifiers and PCLAMP software (Axon Instruments, Burlingame, Calif.).
hSCN9A currents in HEK cells were measured using the whole-cell configuration of the patch-clamp technique (Hamill et al., 1981). Uncompensated series resistance was typically 2 to 5 mega ohms and >85% series resistance compensation was routinely achieved. As a result, voltage errors were negligible and no correction was applied. Current records were acquired at 20 to 50 KHz and filtered at 5 to 10 KHz.
HEK cells stably transfected with hSCN9A were viewed under Hoffman contrast optics and placed in front of an array of flow pipes emitting either control or compound-containing extracellular solutions. All compounds were dissolved in dimethyl sulfoxide to make 10 mM stock solutions, which were then diluted into extracellular solution to attain the final concentrations desired. […] The voltage-dependence of inactivation was determined by applying a series of depolarizing prepulses (8 sec long in 10 mV increments) from a negative holding potential. The voltage was then immediately stepped to 0 mV to assess the magnitude of the sodium current. Currents elicited at 0 mV were plotted as a function of prepulse potential to allow estimation of the voltage at which 50% of the channels were inactivated (midpoint of inactivation or V1/2). Compounds were tested for their ability to inhibit hSCN9A sodium channels by activating the channel with a 20 msec voltage step to 0 mV following an 8 second conditioning prepulse to the empirically determined V1/2. Compound effect (% inhibition) was determined by difference in current amplitude before and after application of test compounds. For ease of comparison, “estimated IC-50” (EIC50) values were calculated from single point electrophysiology data by the following equation, (tested concentration, uM)×(100-% inhibition/% inhibition). Inhibition values <20% and >80% were excluded from the calculation.
Electrophysiological assays were conducted with PatchXpress 7000 hardware and associated software (Molecular Devices Corp). All assay buffers and solutions were identical to those used in conventional whole-cell voltage clamp experiments described above. hSCN9A cells were grown as above to 50%-80% confluency and harvested by trypsinization. […]

IC50 [nM] | Compound
8.1 | O=S(=O)(Nc1ncccn1)c1cc(Cl)c(Oc2ccc(-c3ccc(C(F)(F)F)cc3)cc2-c2ccnnc2)cc1F [Example 2, 5-Chloro-2-fluoro-4-{[3-pyridazin-4-yl-4′-(trifluoromethyl)biphenyl-4-yl]oxy}-N-pyrimidin-2-ylbenzenesulfonamide]
31 | O=S(=O)(Nc1cccnn1)c1ccc(Oc2ccc(-c3ccc(C(F)(F)F)cc3)cc2-c2ccnnc2)c(Cl)c1 [Example 3, 3-Chloro-N-pyridazin-3-yl-4-{[3-pyridazin-4-yl-4′-(trifluoromethyl)biphenyl-4-yl]oxy}benzenesulfonamide]
2.9 | O=S(=O)(Nc1nncs1)c1cc(Cl)c(Oc2ccc(-c3ccccc3C(F)(F)F)cc2-c2ccnnc2)cc1F [Example 4, 5-Chloro-2-fluoro-4-{[3-pyridazin-4-yl-2′-(trifluoromethyl)biphenyl-4-yl]oxy}-N-1,3,4-thiadiazol-2-ylbenzenesulfonamide]
1.3 | O=S(=O)(Nc1nncs1)c1cc(Cl)c(Oc2ccc(-c3cccc(C(F)(F)F)c3)cc2-c2ccnnc2)cc1F [Example 5]
2.9 | O=S(=O)(Nc1nncs1)c1cc(Cl)c(Oc2ccc(-c3ccc(C(F)(F)F)cc3)cc2-c2ccnnc2)cc1F [Example 6, 5-Chloro-2-fluoro-4-{[3-pyridazin-4-yl-4′-(trifluoromethyl)biphenyl-4-yl]oxy}-N-1,3,4-thiadiazol-2-ylbenzenesulfonamide]
1.2 | N#Cc1cc(S(=O)(=O)Nc2ncns2)ccc1Oc1ccc(-c2ccc(C(F)(F)F)cc2)cc1-c1ccnnc1 [Example 7, 3-Cyano-4-{[3-pyridazin-4-yl-4′-(trifluoromethyl)biphenyl-4-yl]oxy}-N-1,2,4-thiadiazol-5-ylbenzenesulfonamide]
32 | Cn1nccc1-c1cc(-c2ccccc2)ccc1Oc1ccc(S(=O)(=O)Nc2nccs2)cc1F [Example 8, 3-Fluoro-4-{[3-(1-methyl-1H-pyrazol-5-yl)biphenyl-4-yl]oxy}-N-1,3-thiazol-2-ylbenzenesulfonamide]
11.6 | O=S(=O)(Nc1nncs1)c1ccc(Oc2ccc(-c3ccccc3)cc2-c2ccnnc2)c(Cl)c1 [Example 9, 3-Chloro-4-[(3-pyridazin-4-ylbiphenyl-4-yl)oxy]-N-1,3,4-thiadiazol-2-ylbenzenesulfonamide]
7.7 | O=S(=O)(Nc1nncs1)c1cc(Cl)c(Oc2ccc(-c3ccccc3)cc2-c2ccnnc2)cc1F [Example 11, 5-Chloro-2-fluoro-4-[(3-pyridazin-4-ylbiphenyl-4-yl)oxy]-N-1,3,4-thiadiazol-2-ylbenzenesulfonamide]
2.2 | CN1CC(n2nccc2-c2cc(-c3ccccc3C(F)(F)F)ccc2Oc2cc(F)c(S(=O)(=O)Nc3nncs3)cc2Cl)C1 [Example 13, 5-Chloro-2-fluoro-4-({3-[1-(1-methylazetidin-3-yl)-1H-pyrazol-5-yl]-2′-(trifluoromethyl)biphenyl-4-yl}oxy)-N-1,3,4-thiadiazol-2-ylbenzenesulfonamide]
1.1 | CN1CC(n2nccc2-c2cc(-c3ccc(C(F)(F)F)cc3)ccc2Oc2cc(F)c(S(=O)(=O)Nc3nncs3)cc2Cl)C1 [Example 14, 5-Chloro-2-fluoro-4-({3-[1-(1-methylazetidin-3-yl)-1H-pyrazol-5-yl]-4′-(trifluoromethyl)biphenyl-4-yl}oxy)-N-1,3,4-thiadiazol-2-ylbenzenesulfonamide]
33 | Cn1nccc1-c1cc(-c2ccccc2)ccc1Oc1cc(F)c(S(=O)(=O)Nc2ccc(F)cn2)cc1Cl [Example 22, 5-Chloro-2-fluoro-N-(5-fluoropyridin-2-yl)-4-{[3-(1-methyl-1H-pyrazol-5-yl)biphenyl-4-yl]oxy}benzenesulfonamide]
1.7 | O=S(=O)(Nc1nncs1)c1cc(Cl)c(Oc2cc(Cl)c(-c3ccc(F)cc3)cc2-c2ccnnc2)cc1F [Example 24, 5-Chloro-4-{[2-chloro-4′-fluoro-5-(pyridazin-4-yl)biphenyl-4-yl]oxy}-2-fluoro-N-(1,3,4-thiadiazol-2-yl)benzenesulfonamide]
0.8 | Nc1n[nH]cc1-c1cc(-c2cccc(C(F)(F)F)c2)ccc1Oc1cc(F)c(S(=O)(=O)Nc2nncs2)cc1Cl [Example 25, 4-{[3-(3-Amino-1H-pyrazol-4-yl)-3′-(trifluoromethyl)biphenyl-4-yl]oxy}-5-chloro-2-fluoro-N-(1,3,4-thiadiazol-2-yl)benzenesulfonamide]

Continued, molecule first:

Compound | IC50 [nM]
N#Cc1cc(S(=O)(=O)Nc2ncns2)ccc1Oc1ccc(-c2cccc(C(F)(F)F)c2)cc1-c1ccnnc1 [Example 1, 3-Cyano-4-{[3-pyridazin-4-yl-3′-(trifluoromethyl)biphenyl-4-yl]oxy}-N-1,2,4-thiadiazol-5-ylbenzenesulfonamide] | 1.8
N#Cc1cc(S(=O)(=O)Nc2nncs2)ccc1Oc1ccc(-c2ccccc2)cc1-c1ccnnc1 [Example 10, 3-Cyano-4-[(3-Pyridazin-4-ylbiphenyl-4-yl)oxy]-N-1,3,4-thiadiazol-2-ylbenzenesulfonamide] | 53
N#Cc1cc(S(=O)(=O)Nc2ncns2)ccc1Oc1ccc(-c2ccccc2)cc1-c1ccnnc1 [Example 12, 3-Cyano-4-[(3-pyridazin-4-ylbiphenyl-4-yl)oxy]-N-1,2,4-thiadiazol-5-ylbenzenesulfonamide] | 1.9
Cn1nccc1-c1cc(-c2ccccc2)ccc1Oc1ccc(S(=O)(=O)Nc2ncc(F)s2)cc1C#N [Example 15, 3-Cyano-N-(5-fluoro-1,3-thiazol-2-yl)-4-{[3-(1-methyl-1H-pyrazol-5-yl)biphenyl-4-yl]oxy}benzenesulfonamide] | 6
Cn1nccc1-c1cc(-c2ccccc2)ccc1Oc1ccc(S(=O)(=O)Nc2ncns2)cc1C#N [Example 16, 3-Cyano-4-{[3-(1-methyl-1H-pyrazol-5-yl)biphenyl-4-yl]oxy}-N-1,2,4-thiadiazol-5-ylbenzenesulfonamide] | 1.5
N#Cc1cc(S(=O)(=O)Nc2ncns2)ccc1Oc1ccc(-c2ccccc2C(F)(F)F)cc1-c1ccnnc1 [Example 17, 3-Cyano-4-{[3-pyridazin-4-yl-2′-(trifluoromethyl)biphenyl-4-yl]oxy}-N-1,2,4-thiadiazol-5-ylbenzenesulfonamide] | 2.7
COc1cccc(-c2ccc(Oc3ccc(S(=O)(=O)Nc4nccs4)cc3C#N)c(-c3ccnn3C)c2)c1 [Example 18, 3-Cyano-4-{[3′-methoxy-3-(1-methyl-1H-pyrazol-5-yl)biphenyl-4-yl]oxy}-N-(1,3-thiazol-2-yl)benzenesulfonamide] | 18
COc1ccccc1-c1ccc(Oc2ccc(S(=O)(=O)Nc3nccs3)cc2C#N)c(-c2ccnn2C)c1 [Example 19, 3-Cyano-4-{[2′-methoxy-3-(1-methyl-1H-pyrazol-5-yl)biphenyl-4-yl]oxy}-N-(1,3-thiazol-2-yl)benzenesulfonamide] | 11
Cn1nccc1-c1cc(-c2ccccc2)ccc1Oc1ccc(S(=O)(=O)Nc2ccc(F)cn2)cc1C#N [Example 20, 3-Cyano-N-(5-fluoropyridin-2-yl)-4-{[3-(1-methyl-1H-pyrazol-5-yl)biphenyl-4-yl]oxy}benzenesulfonamide] | 240
Cn1nccc1-c1cc(-c2cccc(CN)c2)ccc1Oc1ccc(S(=O)(=O)Nc2nccs2)cc1C#N [Example 21, 4-{[3′-(Aminomethyl)-3-(1-methyl-1H-pyrazol-5-yl)biphenyl-4-yl]oxy}-3-cyano-N-(1,3-thiazol-2-yl)benzenesulfonamide, hydrochloride salt] | 100
CNCc1ccccc1-c1ccc(Oc2ccc(S(=O)(=O)Nc3nccs3)cc2C#N)c(-c2ccnn2C)c1 [Example 23, 3-Cyano-4-({2′-[(methylamino)methyl]-3-(1-methyl-1H-pyrazol-5-yl)biphenyl-4-yl}oxy)-N-(1,3-thiazol-2-yl)benzenesulfonamide, trifluoroacetate salt] | 5.1
